Where two headings read alike, the source gives them in different places.
Experiments:
Type in all cases: biochemical
SUV39H2 = molecular target: T1, SUV39H2 (Homo sapiens, UniProt Q9H5I1); assay: PMT filter-paper methylation assay, SUV39H2; conditions: SUV39H2 (112-410) 5 nM final, H3 (1-21 aa), 4 h
T1 construct: SUV39H2 (112-410)

SMYD2-FL = molecular target: T2, SMYD2-FL (Homo sapiens, UniProt Q9NRG4); assay: PMT filter-paper methylation assay, SMYD2; conditions: SMYD2 full-length 50 nM final, p53 (360-393 aa), 10 h
T2 construct: SMYD2 Full-length
Experimental: (§1) Methylation Reaction. The 20 μL methylation reaction was carried out at ambient temperature using two mixtures: A. 10 μl of enzyme mixture in the assay buffer containing 50 mM Hepes (pH=8.0), 0.005% Tween-20, 5 μg/ml BSA and 1 mM TCEP; B. 10 μl of a mixture of 1.5 μM, 0.15 μCi [^3H-Me]-SAM cofactor and 3 μM of the corresponding peptide substrate in the same assay buffer. After A and B were mixed for a designated time period, the reaction mixture was examined with our filter-paper assay.
(§2) Filter-paper Assay. This assay relies on Whatman P-81 filter paper, which binds peptides but not SAM. Protein Methyl Transferases (PMTs) transfer ^3H-Me of [^3H-Me]-SAM to peptide substrates and the resultant ^3H-methylated, filter-paper-bound peptide is quantified with a scintillation counter. […] The radioactivity was quantified by a Beckman LS6000IC liquid scintillation counter.
(§3) Dose-response Curves and IC50. […] After incubating the reaction mixture for the respective reaction time, the conversion was quantified with the filter paper assay as described above. The inhibition was expressed as the percentage between the high control (no inhibition) and the low control (no enzyme) as follows: Percentage Inhibition=[(high control−reading)/(high control−low control)]×100%. […]

G9a = molecular target: T3, G9a (Homo sapiens, UniProt Q96KQ7); assay: PMT filter-paper methylation assay, G9a; conditions: G9a (913-1913) 20 nM final, H3 (1-21 aa), 1 h
T3 construct: G9a (913-1913)
T3 sequence (Q96KQ7 913-1193 limits assumed): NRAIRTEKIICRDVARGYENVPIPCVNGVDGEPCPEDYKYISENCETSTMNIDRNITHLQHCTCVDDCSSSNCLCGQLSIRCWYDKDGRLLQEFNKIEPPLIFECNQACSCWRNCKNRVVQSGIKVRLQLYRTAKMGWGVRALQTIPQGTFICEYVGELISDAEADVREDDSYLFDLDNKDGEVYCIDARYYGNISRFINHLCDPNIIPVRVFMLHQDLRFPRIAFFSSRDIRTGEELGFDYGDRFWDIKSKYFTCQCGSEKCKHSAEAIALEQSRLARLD

SET8 = molecular target: T4, SET8 (Homo sapiens, UniProt Q9NQR1); assay: PMT filter-paper methylation assay, SET8; conditions: SET8 (191-352) 1000 nM final, H4 (10-30 aa), 8 h
T4 construct: SET8 (191-352)
T4 sequence (Q9NQR1 191-352 isoform Q9NQR1-2): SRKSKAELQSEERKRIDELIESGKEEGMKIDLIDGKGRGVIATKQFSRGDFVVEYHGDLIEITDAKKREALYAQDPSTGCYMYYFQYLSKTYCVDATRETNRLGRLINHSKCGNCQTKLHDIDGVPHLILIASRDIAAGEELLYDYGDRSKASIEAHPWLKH
Experimental: as §1, §2, §3

SMYD3 = molecular target: T5, SMYD3 (Homo sapiens, UniProt Q9H7B4); assay: PMT filter-paper methylation assay, SMYD3; conditions: SMYD3 125 nM final, MAP3K2 (1-350 aa), 2 h
T5 sequence (Q9H7B4 1-428): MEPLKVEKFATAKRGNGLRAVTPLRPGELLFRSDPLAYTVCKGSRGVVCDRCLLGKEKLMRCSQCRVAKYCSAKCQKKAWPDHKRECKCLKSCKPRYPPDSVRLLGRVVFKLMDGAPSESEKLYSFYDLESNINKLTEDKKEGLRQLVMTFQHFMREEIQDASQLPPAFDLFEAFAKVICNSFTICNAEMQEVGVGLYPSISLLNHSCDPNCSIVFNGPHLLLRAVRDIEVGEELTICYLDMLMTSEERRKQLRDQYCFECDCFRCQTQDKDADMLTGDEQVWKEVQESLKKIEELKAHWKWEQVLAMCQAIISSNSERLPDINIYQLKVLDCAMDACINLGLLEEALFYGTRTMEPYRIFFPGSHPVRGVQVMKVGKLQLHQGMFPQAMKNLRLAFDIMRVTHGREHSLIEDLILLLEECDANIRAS
Experimental: as §1, §2, §3

PRMT8 = PRMT8 (Homo sapiens, UniProt Q9NR22); assay: PMT filter-paper methylation assay, PRMT8
Experimental: as §1, §2, §3

CARM1 = molecular target: T6, CARM1 (Homo sapiens, UniProt Q86X55); assay: PMT filter-paper methylation assay, CARM1; conditions: H3 (1-40 aa), 7 h
T6 construct: CARM1 (19-608)
T6 sequence (Q86X55 19-608): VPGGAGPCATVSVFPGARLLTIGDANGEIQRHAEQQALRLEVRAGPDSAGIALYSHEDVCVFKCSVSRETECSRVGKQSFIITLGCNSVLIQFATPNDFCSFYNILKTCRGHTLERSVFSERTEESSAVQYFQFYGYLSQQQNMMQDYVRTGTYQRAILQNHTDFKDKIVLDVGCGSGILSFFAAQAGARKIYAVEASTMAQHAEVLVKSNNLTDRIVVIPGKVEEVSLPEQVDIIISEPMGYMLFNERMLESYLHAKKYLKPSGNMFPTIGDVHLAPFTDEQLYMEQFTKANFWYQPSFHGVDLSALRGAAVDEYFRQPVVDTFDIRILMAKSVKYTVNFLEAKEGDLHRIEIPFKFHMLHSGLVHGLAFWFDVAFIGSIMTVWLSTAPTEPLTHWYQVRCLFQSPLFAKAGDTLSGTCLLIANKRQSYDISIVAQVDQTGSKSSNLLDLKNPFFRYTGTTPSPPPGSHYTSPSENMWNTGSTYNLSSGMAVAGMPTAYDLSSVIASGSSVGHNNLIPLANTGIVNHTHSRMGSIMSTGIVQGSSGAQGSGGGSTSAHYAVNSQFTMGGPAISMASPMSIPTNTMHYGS

SET7/9 = molecular target: T7, SET7/9 (Homo sapiens, UniProt Q8WTS6); assay: PMT filter-paper methylation assay, SET7/9; conditions: SET7/9 full-length 150 nM final, H3 (1-21 aa), 3 h
T7 construct: SET7/9 Full-length
T7 sequence (Q8WTS6 1-366): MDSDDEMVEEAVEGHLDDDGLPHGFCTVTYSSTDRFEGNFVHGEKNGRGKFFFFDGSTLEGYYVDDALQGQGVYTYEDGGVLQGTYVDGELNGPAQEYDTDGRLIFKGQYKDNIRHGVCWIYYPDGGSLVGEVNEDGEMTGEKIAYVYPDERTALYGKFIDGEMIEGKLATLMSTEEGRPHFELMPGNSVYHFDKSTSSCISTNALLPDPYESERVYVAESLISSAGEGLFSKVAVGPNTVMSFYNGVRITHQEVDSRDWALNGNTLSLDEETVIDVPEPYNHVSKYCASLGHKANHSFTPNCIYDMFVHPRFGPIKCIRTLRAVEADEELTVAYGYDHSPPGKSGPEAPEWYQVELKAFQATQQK
Experimental: as §1, §2, §3

PRMT3 = molecular target: T8, PRMT3 (Homo sapiens, UniProt O60678); assay: PMT filter-paper methylation assay, PRMT3; conditions: PRMT3 (211-531) 100 nM final, RGG, 3 h
T8 construct: PRMT3 (211-531)

GLP1 = molecular target: T9, GLP1 (Homo sapiens, UniProt Q9H9B1); assay: PMT filter-paper methylation assay, GLP1; conditions: GLP1 (951-1235) 10 nM final, H3 (1-21 aa), 1 h
T9 construct: GLP1 (951-1235)
T9 sequence (Q9H9B1 982-1266): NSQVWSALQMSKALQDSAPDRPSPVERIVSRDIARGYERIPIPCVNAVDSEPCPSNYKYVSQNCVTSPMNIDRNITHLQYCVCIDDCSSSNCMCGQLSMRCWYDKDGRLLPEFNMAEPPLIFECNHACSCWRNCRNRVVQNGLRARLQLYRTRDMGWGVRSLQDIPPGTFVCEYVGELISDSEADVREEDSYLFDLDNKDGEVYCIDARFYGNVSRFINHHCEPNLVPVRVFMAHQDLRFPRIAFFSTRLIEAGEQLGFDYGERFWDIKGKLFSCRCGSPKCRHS
Experimental: as §1, §2, §3

PRMT1 = molecular target: T10, PRMT1 (Homo sapiens, UniProt Q99873); assay: PMT filter-paper methylation assay, PRMT1; conditions: PRMT1 (10-352), 100 nm, RGG substrate, 1.5 h
T10 construct: PRMT1 (10-352)

SETD2 = molecular target: T11, SETD2 (Homo sapiens, UniProt Q9BYW2); assay: PMT filter-paper methylation assay, SETD2; conditions: SETD2 (1347-1711) 250 nM final, H3 (20-50 aa), 4 h
T11 construct: SETD2 (1347-1711)
T11 sequence (Q9BYW2 1347-1711): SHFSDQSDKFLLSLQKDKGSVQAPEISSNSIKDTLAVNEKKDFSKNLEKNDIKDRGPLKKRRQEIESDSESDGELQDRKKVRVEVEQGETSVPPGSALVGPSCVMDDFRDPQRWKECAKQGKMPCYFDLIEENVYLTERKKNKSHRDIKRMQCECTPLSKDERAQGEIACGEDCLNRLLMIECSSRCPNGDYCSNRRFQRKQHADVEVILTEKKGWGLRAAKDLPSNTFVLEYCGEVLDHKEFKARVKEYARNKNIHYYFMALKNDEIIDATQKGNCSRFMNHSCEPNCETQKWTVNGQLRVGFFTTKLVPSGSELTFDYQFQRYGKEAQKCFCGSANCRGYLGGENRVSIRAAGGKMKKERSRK
Experimental: as §1, §2, §3

MLL1 = MLL1 (Homo sapiens, UniProt Q03164); assay: PMT filter-paper methylation assay, MLL1
Experimental: as §1, §2, §3

PRMT8, sequence (Q9NR22 whole entry): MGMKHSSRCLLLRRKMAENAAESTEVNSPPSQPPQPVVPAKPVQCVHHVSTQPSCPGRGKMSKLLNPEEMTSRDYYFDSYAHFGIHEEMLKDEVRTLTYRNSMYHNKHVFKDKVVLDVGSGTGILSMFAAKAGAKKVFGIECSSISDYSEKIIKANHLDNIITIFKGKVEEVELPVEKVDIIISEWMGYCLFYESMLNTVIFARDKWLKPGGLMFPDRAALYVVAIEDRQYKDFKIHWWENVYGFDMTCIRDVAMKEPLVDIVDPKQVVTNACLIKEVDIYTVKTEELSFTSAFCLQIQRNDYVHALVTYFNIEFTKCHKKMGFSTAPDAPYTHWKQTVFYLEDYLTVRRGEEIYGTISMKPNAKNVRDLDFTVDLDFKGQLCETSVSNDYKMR
T10 sequence (Q99873 10-352 isoform Q99873-3): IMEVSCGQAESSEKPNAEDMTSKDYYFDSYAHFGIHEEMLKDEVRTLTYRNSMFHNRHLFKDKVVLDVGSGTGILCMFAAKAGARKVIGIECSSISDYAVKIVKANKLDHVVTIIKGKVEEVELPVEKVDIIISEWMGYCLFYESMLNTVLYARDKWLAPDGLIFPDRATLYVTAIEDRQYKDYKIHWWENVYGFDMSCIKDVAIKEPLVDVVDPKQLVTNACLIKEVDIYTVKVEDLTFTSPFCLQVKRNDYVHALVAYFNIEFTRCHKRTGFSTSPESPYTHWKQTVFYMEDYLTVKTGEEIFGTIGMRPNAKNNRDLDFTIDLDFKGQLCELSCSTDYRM
T2 sequence (Q9NRG4 whole entry, the tested form may be a part): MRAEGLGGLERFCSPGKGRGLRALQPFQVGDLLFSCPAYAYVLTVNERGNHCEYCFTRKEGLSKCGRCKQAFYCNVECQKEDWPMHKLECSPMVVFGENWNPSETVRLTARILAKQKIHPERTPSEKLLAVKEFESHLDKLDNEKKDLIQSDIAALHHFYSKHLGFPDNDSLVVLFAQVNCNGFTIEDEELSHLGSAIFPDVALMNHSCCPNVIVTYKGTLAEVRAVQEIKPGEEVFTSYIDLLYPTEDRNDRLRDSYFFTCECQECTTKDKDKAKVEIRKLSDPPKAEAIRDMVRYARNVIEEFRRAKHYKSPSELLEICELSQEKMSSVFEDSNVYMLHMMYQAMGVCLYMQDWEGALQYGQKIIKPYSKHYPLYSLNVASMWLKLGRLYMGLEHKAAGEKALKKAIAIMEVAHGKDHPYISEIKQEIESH
T8 sequence (O60678 211-531): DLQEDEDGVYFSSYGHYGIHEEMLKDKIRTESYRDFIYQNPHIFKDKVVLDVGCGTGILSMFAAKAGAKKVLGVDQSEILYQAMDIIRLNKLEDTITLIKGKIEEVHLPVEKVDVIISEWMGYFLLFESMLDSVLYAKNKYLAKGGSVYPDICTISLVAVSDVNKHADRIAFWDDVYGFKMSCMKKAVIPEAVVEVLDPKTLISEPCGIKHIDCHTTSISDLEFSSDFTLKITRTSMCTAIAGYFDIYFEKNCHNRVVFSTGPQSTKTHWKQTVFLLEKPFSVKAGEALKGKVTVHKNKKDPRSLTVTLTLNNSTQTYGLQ
T1 sequence (Q9H5I1 112-410): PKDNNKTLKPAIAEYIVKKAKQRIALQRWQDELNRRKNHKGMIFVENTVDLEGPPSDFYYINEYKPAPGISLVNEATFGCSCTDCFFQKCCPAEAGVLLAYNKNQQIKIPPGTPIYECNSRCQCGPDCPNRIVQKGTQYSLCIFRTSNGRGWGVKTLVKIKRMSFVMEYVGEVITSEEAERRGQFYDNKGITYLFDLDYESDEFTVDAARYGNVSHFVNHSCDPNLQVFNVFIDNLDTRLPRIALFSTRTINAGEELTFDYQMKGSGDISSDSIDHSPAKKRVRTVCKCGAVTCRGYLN

CC(C)(C)c1ccc(NC(=O)NCCC[C@H](CNCc2ccccc2)C[C@H]2O[C@@H](n3cnc4c(N)ncnc43)C(O)C2O)cc1 (some centres unmarked) [Example 104]
IC50 (SUV39H2): > 50 µM | IC50 (SMYD2-FL): > 50 µM | IC50 (G9a): > 50 µM | IC50 (SET8): > 50 µM | IC50 (SMYD3): > 50 µM | IC50 (PRMT8): > 50 µM | IC50 (CARM1; CARM1 (19-608)^a 300 nM final enzyme, read-out: IC50 CARM1^a): 0.3 µM | IC50 (CARM1; CARM1 (19-608)^b 25 nM final enzyme, read-out: IC50 CARM1^b): 0.05 µM | IC50 (SET7/9): > 50 µM | IC50 (PRMT3): > 50 µM | IC50 (GLP1): > 50 µM | IC50 (PRMT1): > 50 µM | IC50 (SETD2): 45 µM | IC50 (MLL1): 4.5 µM
